COC(=O)c1cc(OC)c2c(c1-c1c(C(=O)OC)cc(OC)c3c1OCO3)OCO2
solubility (mole fraction)
Settings	293.15 K	303.15 K	313.15 K	323.15 K	333.15 K
in acetone	0.00457	0.0068	0.0104	0.0174	–
in acetonitrile	0.00542	0.00808	0.0123	0.0189	–
in ethanol	6.48e-05	0.000114	0.000277	0.000523	0.00102
in ethyl acetate	0.00302	0.0044	0.00659	0.0103	–
in isopropanol	6.44e-05	0.00011	0.000223	0.000484	0.00107
in methanol	7.18e-05	0.000121	0.000275	0.000459	–
in methyl acetate	0.00549	0.00775	0.0124	0.0193	–
in n-butanol	5.71e-05	0.000114	0.000214	0.000511	0.00104
in n-butyl acetate	0.00137	0.00199	0.00318	0.00554	0.00831
in n-pentanol	6.14e-05	0.000114	0.000199	0.000388	0.00104
in n-pentyl acetate	0.0011	0.00154	0.00244	0.00387	0.00649
in n-propanol	5.78e-05	0.000104	0.000211	0.000479	0.00107
in n-propyl acetate	0.00171	0.00279	0.00423	0.00659	0.0117

Source: BigSolDB 2.1
